From the NIST ThermoML archive (doi:10.1016/j.jct.2006.05.012)
± gives the expanded uncertainty stated by the source.

Assays:
[1] = 298.15 K; 101 kPa; Liquid
[2] = xn = mol fraction of the nth substance listed; conditions: 298.15 K, 101 kPa, Liquid

Question: Which mass density [1] does the source give for `Cc1ccccc1` [toluene] here?
Answer: The mass density was 862.11 ± 0.18 kg/m3.

Question: With `C=C(C)C(=O)OC` [methyl methacrylate] + Cc1ccccc1 as the molecule, how does the mass density ([2]; x2 = 0) read?
Answer: The mass density was 937.646 ± 0.12 kg/m3.

Question: And the mass density ([2]; x2 = 0.0249)?
Answer: Its mass density is 935.719 ± 0.12 kg/m3.

Question: What about the mass density ([2]; x2 = 0.0501) of the same molecule?
Answer: Its mass density is 933.759 ± 0.13 kg/m3.

Question: And the mass density ([2]; x2 = 0.1005)?
Answer: The mass density was 929.859 ± 0.13 kg/m3.

Question: What about the mass density ([2]; x2 = 0.15) of the same molecule?
Answer: The mass density was 926.06 ± 0.13 kg/m3.

Question: And the mass density ([2]; x2 = 0.1994)?
Answer: The mass density was 922.3 ± 0.13 kg/m3.

Question: What about the mass density ([2]; x2 = 0.2497) of the same molecule?
Answer: Its mass density is 918.45 ± 0.14 kg/m3.

Question: And the mass density ([2]; x2 = 0.3001)?
Answer: The mass density was 914.63 ± 0.14 kg/m3.

Question: What about the mass density ([2]; x2 = 0.35) of the same molecule?
Answer: The mass density was 910.852 ± 0.14 kg/m3.

Question: What about the mass density ([2]; x2 = 0.3998) of the same molecule?
Answer: Its mass density is 907.089 ± 0.14 kg/m3.

Question: And the mass density ([2]; x2 = 0.4501)?
Answer: Its mass density is 903.299 ± 0.15 kg/m3.

Question: And the mass density ([2]; x2 = 0.5)?
Answer: The mass density was 899.556 ± 0.15 kg/m3.

Question: What about the mass density ([2]; x2 = 0.5501) of the same molecule?
Answer: Its mass density is 895.803 ± 0.15 kg/m3.

Question: And the mass density ([2]; x2 = 0.5979)?
Answer: Its mass density is 892.219 ± 0.16 kg/m3.

Question: What about the mass density ([2]; x2 = 0.6486) of the same molecule?
Answer: The mass density was 888.421 ± 0.16 kg/m3.

Question: What about the mass density ([2]; x2 = 0.6998) of the same molecule?
Answer: The mass density was 884.596 ± 0.16 kg/m3.

Question: And the mass density ([2]; x2 = 0.7499)?
Answer: The mass density was 880.84 ± 0.16 kg/m3.

Question: And the mass density ([2]; x2 = 0.794)?
Answer: Its mass density is 877.532 ± 0.17 kg/m3.

Question: And the mass density ([2]; x2 = 0.8481)?
Answer: Its mass density is 873.485 ± 0.17 kg/m3.

Question: What about the mass density ([2]; x2 = 0.9) of the same molecule?
Answer: Its mass density is 869.606 ± 0.17 kg/m3.

Question: And the mass density ([2]; x2 = 0.95)?
Answer: The mass density was 865.864 ± 0.17 kg/m3.

Question: What about the mass density ([2]; x2 = 0.9731) of the same molecule?
Answer: The mass density was 864.133 ± 0.18 kg/m3.

Question: With `C=CC(=O)OCCCC` [butyl 2-propenoate] as the molecule, how does the mass density [1] read?
Answer: The mass density was 893.96 ± 0.15 kg/m3.

Question: Which mass density ([2]; x1 = 1) does the source give for `Cc1ccccc1` [toluene] + C=CC(=O)OCCCC here?
Answer: The mass density was 862.11 ± 0.18 kg/m3.

Question: For `Cc1ccccc1` [toluene] + C=C(C)C(=O)OC, which mass density ([2]; x1 = 1) is on record?
Answer: Its mass density is 862.11 ± 0.18 kg/m3.

Question: Which mass density ([2]; x2 = 0) does the source give for `C=C(C)C(=O)OC` [methyl methacrylate] + C=CC(=O)OCCCC here?
Answer: Its mass density is 937.65 ± 0.12 kg/m3.

Question: Which mass density [1] does the source give for `C=C(C)C(=O)OC` [methyl methacrylate] here?
Answer: The mass density was 937.65 ± 0.12 kg/m3.

Question: For `C=CC(=O)OCCCC` [butyl 2-propenoate] + Cc1ccccc1, which mass density ([2]; x2 = 0) is on record?
Answer: Its mass density is 893.955 ± 0.15 kg/m3.

Question: What about the mass density ([2]; x2 = 0.0255) of the same molecule?
Answer: The mass density was 893.406 ± 0.15 kg/m3.

Question: What about the mass density ([2]; x2 = 0.0508) of the same molecule?
Answer: The mass density was 892.895 ± 0.15 kg/m3.

Question: And the mass density ([2]; x2 = 0.0999)?
Answer: Its mass density is 891.775 ± 0.16 kg/m3.

Question: And the mass density ([2]; x2 = 0.1509)?
Answer: The mass density was 890.523 ± 0.16 kg/m3.

Question: What about the mass density ([2]; x2 = 0.2006) of the same molecule?
Answer: Its mass density is 889.277 ± 0.16 kg/m3.

Question: And the mass density ([2]; x2 = 0.2506)?
Answer: The mass density was 887.998 ± 0.16 kg/m3.

Question: And the mass density ([2]; x2 = 0.2996)?
Answer: The mass density was 886.7 ± 0.16 kg/m3.

Question: And the mass density ([2]; x2 = 0.3597)?
Answer: The mass density was 885.033 ± 0.16 kg/m3.

Question: And the mass density ([2]; x2 = 0.4006)?
Answer: Its mass density is 883.858 ± 0.16 kg/m3.

Question: What about the mass density ([2]; x2 = 0.4504) of the same molecule?
Answer: Its mass density is 882.402 ± 0.16 kg/m3.

Question: And the mass density ([2]; x2 = 0.5015)?
Answer: The mass density was 880.847 ± 0.16 kg/m3.

Question: What about the mass density ([2]; x2 = 0.55) of the same molecule?
Answer: Its mass density is 879.307 ± 0.17 kg/m3.

Question: And the mass density ([2]; x2 = 0.6006)?
Answer: The mass density was 877.659 ± 0.17 kg/m3.

Question: And the mass density ([2]; x2 = 0.6502)?
Answer: Its mass density is 875.977 ± 0.17 kg/m3.

Question: And the mass density ([2]; x2 = 0.7003)?
Answer: Its mass density is 874.219 ± 0.17 kg/m3.

Question: What about the mass density ([2]; x2 = 0.7501) of the same molecule?
Answer: The mass density was 872.408 ± 0.17 kg/m3.

Question: And the mass density ([2]; x2 = 0.8)?
Answer: The mass density was 870.53 ± 0.17 kg/m3.

Question: What about the mass density ([2]; x2 = 0.8499) of the same molecule?
Answer: The mass density was 868.551 ± 0.17 kg/m3.

Question: What about the mass density ([2]; x2 = 0.9001) of the same molecule?
Answer: Its mass density is 866.487 ± 0.17 kg/m3.

Question: What about the mass density ([2]; x2 = 0.95) of the same molecule?
Answer: The mass density was 864.338 ± 0.18 kg/m3.

Question: And the mass density ([2]; x2 = 0.9751)?
Answer: Its mass density is 863.216 ± 0.18 kg/m3.

Question: What does the source list for `C=CC(=O)OCCCC` [butyl 2-propenoate] + C=C(C)C(=O)OC?
Answer: mass density ([2]; x1 = 0.025): 936.15 ± 0.12 kg/m3; mass density ([2]; x1 = 0.0501): 934.64 ± 0.13 kg/m3; mass density ([2]; x1 = 0.1001): 931.77 ± 0.13 kg/m3; mass density ([2]; x1 = 0.1502): 929.01 ± 0.13 kg/m3; mass density ([2]; x1 = 0.2): 926.33 ± 0.13 kg/m3; mass density ([2]; x1 = 0.25): 923.76 ± 0.13 kg/m3; mass density ([2]; x1 = 0.2946): 921.53 ± 0.13 kg/m3; mass density ([2]; x1 = 0.3498): 918.85 ± 0.14 kg/m3; mass density ([2]; x1 = 0.3992): 916.57 ± 0.14 kg/m3; mass density ([2]; x1 = 0.45): 914.28 ± 0.14 kg/m3; mass density ([2]; x1 = 0.4999): 912.12 ± 0.14 kg/m3; mass density ([2]; x1 = 0.5499): 910.04 ± 0.14 kg/m3; mass density ([2]; x1 = 0.5999): 908.01 ± 0.14 kg/m3; mass density ([2]; x1 = 0.644): 906.27 ± 0.15 kg/m3; mass density ([2]; x1 = 0.6991): 904.19 ± 0.15 kg/m3; mass density ([2]; x1 = 0.7499): 902.33 ± 0.15 kg/m3; mass density ([2]; x1 = 0.8002): 900.52 ± 0.15 kg/m3; mass density ([2]; x1 = 0.8504): 898.81 ± 0.15 kg/m3; mass density ([2]; x1 = 0.8994): 897.15 ± 0.15 kg/m3; mass density ([2]; x1 = 0.9499): 895.53 ± 0.15 kg/m3; mass density ([2]; x1 = 0.9749): 894.72 ± 0.15 kg/m3; mass density ([2]; x1 = 1): 893.96 ± 0.15 kg/m3
